Test [1] addresses T1, TRα (Homo sapiens, UniProt P10827).
T1 construct: 5 μL of 4×TR beta/alfa-LBD; purchased Invitrogen PV4687
Description: LanthaScreen TR-FRET Thyroid Receptor alfa Coactivator Assay (in vitro binding activity). The conditions noted are these: TR alfa-LBD. As to the method:
(§1) 2. Detection of the Binding Activity of the Compound of the Present Invention to TRα or TRβ In Vitro
(§2) Test Materials • LanthaScreen TR-FRET Thyroid Receptor beta Coactivator Assay kit was purchased from Invitrogen, Cat. No. PV4686; • LanthaScreen TR-FRET Thyroid Receptor alfa Coactivator Assay kit was purchased from Invitrogen, Cat. No. PV4687.
(§3) The method was experimented with LanthaScreen TR-FRET Thyroid Receptor beta/alfa Coactivator Assay kit. The test compound was dissolved in DMSO and diluted 3 times to a total of 10 concentrations, and then diluted with TR-FRET Coregulator Buffer C in the kit to form a solution containing 2% DMSO, 10 μL of the solution containing 2% DMSO was taken into a 384-well plate, then 5 μL of 4×TR beta/alfa-LBD, 5 μL of a mixture containing 0.4 μM fluorescein-SRC2-2 and 8 nM Tb anti-GST antibody were added into each well, mixed thoroughly, and incubated at room temperature for 1 h in the dark. After 1 h, BMG LABTECH's PHERAstar FSX microplate reader was used to read the fluorescence value (RFU) at […]. The TR-FRET ratio was calculated by dividing the emission signal at 520 nm by the emission signal at 495 nm. Graph Pad Prism 5 software was used to draw the curve and calculate the EC50 value. The in vitro binding activity test results of some of the compounds of the examples of the present invention are shown in Table 1 below.

For test [2], the target named is T2, TRβ (Homo sapiens, UniProt P10828).
T2 construct: 5 μL of 4×TR beta/alfa-LBD; purchased Invitrogen PV4686
T2 sequence (P10828 217-461 limits assumed): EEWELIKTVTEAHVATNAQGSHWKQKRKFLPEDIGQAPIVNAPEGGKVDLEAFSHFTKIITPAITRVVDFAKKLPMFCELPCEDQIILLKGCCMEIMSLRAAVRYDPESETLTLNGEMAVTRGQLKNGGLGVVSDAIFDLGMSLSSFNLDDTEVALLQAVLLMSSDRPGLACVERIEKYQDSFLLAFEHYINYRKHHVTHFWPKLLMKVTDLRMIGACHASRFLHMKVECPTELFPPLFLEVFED
Description: LanthaScreen TR-FRET Thyroid Receptor beta Coactivator Assay (in vitro binding activity). The conditions noted are these: TR beta-LBD. As to the method:
as §1, §2, §3
A general note: Time-resolved FRET reads energy transfer from a long-lived donor to a nearby acceptor.

The values that follow come from patent US20240025875A1, “A COMPOUND AS A THYROID HORMONE BETA RECEPTOR AGONIST AND USE THEREOF” (SUNSHINE LAKE PHARMA CO., LTD., priority 2020, published 2024).

The structures appear in SMILES notation.

For orientation: EC50 means the concentration needed to bring the measured effect to its halfway point.

T1 sequence (P10827 163-410 isoform P10827-2 limits assumed, other chains not shown): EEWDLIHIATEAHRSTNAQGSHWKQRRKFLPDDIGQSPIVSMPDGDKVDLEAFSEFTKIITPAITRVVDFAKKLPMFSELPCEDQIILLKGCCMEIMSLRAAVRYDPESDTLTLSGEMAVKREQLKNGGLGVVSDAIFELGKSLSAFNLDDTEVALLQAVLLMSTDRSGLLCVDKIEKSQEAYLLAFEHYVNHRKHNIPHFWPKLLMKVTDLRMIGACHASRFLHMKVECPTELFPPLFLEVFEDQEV

For `N#Cc1nn(-c2cc(Cl)c(Oc3ccc4c(c3)CCN(C=O)C4=O)c(Cl)c2)c(=O)[nH]c1=O` [Example 51, 2-(3,5-dichloro-4-((2-formyl-1-oxo-1,2,3,4-tetrahydroisoquinolin-6-yl)oxy)phenyl)-3,5-dioxo-2,3,4,5-tetrahydro-1,2,4-triazine-6-carbonitrile], the 50% effective concentration (EC50) in test [1] was over 100 µM; in test [2], 0.904 µM.
`COc1cccc(CN2CCc3cc(Oc4c(Cl)cc(-n5ncc(=O)[nH]c5=O)cc4Cl)ccc3C2=O)c1` [Example 36, 2-(3,5-dichloro-4-((2-(3-methoxybenzyl)-1-oxo-1,2,3,4-tetrahydroisoquinolin-6-yl)oxy)phenyl)-1,2,4-triazine-3,5(2H,4H)-dione]: the EC50 was 0.079 µM in test [1] and under 0.0046 µM in test [2].
Regarding `O=C1c2ccc(Oc3c(Cl)cc(-n4ncc(=O)[nH]c4=O)cc3Cl)cc2CCN1Cc1cccnn1` [Example 25, 2-(3,5-dichloro-4-((1-oxo-2-(pyridazin-3-ylmethyl)-1,2,3,4-tetrahydroisoquinolin-6-yl)oxy)phenyl)-1,2,4-triazine-3,5(2H,4H)-dione], the 50% effective concentration (EC50) in test [1] was over 100 µM; in test [2], 0.241 µM.
The like results for `N#Cc1nn(-c2cc(Cl)c(Oc3ccc4c(c3)CCN(Cc3cccc(F)c3)C4=O)c(Cl)c2)c(=O)[nH]c1=O` [Example 31d, 2-(3,5-dichloro-4-((2-(3-fluorobenzyl)-1-oxo-1,2,3,4-tetrahydroisoquinolin-6-yl)oxy)phenyl)-3,5-dioxo-2,3,4,5-tetrahydro-1,2,4-triazine-6-carbonitrile] were, in that order, over 100 µM and 0.034 µM.
`N#Cc1nn(-c2cc(Cl)c(Oc3ccc4c(c3)CCN(Cc3ccc(F)c(Cl)c3)C4=O)c(Cl)c2)c(=O)[nH]c1=O` [Example 35d, 2-(3,5-dichloro-4-((2-(3-chloro-4-fluorobenzyl)-1-oxo-1,2,3,4-tetrahydroisoquinolin-6-yl)oxy)phenyl)-3,5-dioxo-2,3,4,5-tetrahydro-1,2,4-triazine-6-carbonitrile]: the 50% effective concentration (EC50) in test [1] was over 100 µM; in test [2] it was 0.08 µM.
For `N#Cc1nn(-c2cc(Cl)c(Oc3ccc4c(c3)CCN(COCC(F)F)C4=O)c(Cl)c2)c(=O)[nH]c1=O` [Example 15, 2-(3,5-dichloro-4-((1-oxo-2-((2,2-difluoroethoxy)methyl)-1,2,3,4-tetrahydroisoquinolin-6-yl)oxy)phenyl)-3,5-dioxo-2,3,4,5-tetrahydro-1,2,4-triazine-6-carbonitrile], in that order: 0.176 µM and 0.024 µM.
With `COCCN1CCc2cc(Oc3c(Cl)cc(-n4nc(C#N)c(=O)[nH]c4=O)cc3Cl)ccc2C1=O` [Example 10, 2-(3,5-Dichloro-4-((2-(2-methoxyethyl)-1-oxo-1,2,3,4-tetrahydroisoquinolin-6-yl)oxy)phenyl)-3,5-dioxo-2,3,4,5-tetrahydro-1,2,4-triazine-6-carbonitrile], the EC50 is 0.206 µM in test [1] and 0.049 µM in test [2].
With `N#Cc1nn(-c2cc(Cl)c(Oc3ccc4c(c3)CCN(Cc3cc(F)cc(F)c3)C4=O)c(Cl)c2)c(=O)[nH]c1=O` [Example 32d, 2-(3,5-Dichloro-4-((2-(3,5-difluorobenzyl)-1-oxo-1,2,3,4-tetrahydroisoquinolin-6-yl)oxy)phenyl)-3,5-dioxo-2,3,4,5-tetrahydro-1,2,4-triazine-6-carbonitrile], the figures for the EC50 in test [1] and in test [2] were over 100 µM and 0.054 µM, respectively.
Consider `Cc1ccc(F)cc1CN1CCc2cc(Oc3c(Cl)cc(-n4nc(C#N)c(=O)[nH]c4=O)cc3Cl)ccc2C1=O` [Example 40d, 2-(3,5-dichloro-4-((2-(5-fluoro-2-methylbenzyl)-1-oxo-1,2,3,4-tetrahydroisoquinolin-6-yl)oxy)phenyl)-3,5-dioxo-2,3,4,5-tetrahydro-1,2,4-triazine-6-carbonitrile], for which the EC50 in test [1] was over 100 µM; in test [2] it was 0.035 µM.
The like results for `N#Cc1nn(-c2cc(Cl)c(Oc3ccc4c(c3)CCNC4=O)c(Cl)c2)c(=O)[nH]c1=O` [Example 1, 2-(3,5-dichloro-4-((1-oxo-1,2,3,4-tetrahydroisoquinolin-6-yl)oxy)phenyl)-3,5-dioxo-2,3,4,5-tetrahydro-1,2,4-triazine-6-carbonitrile] were, in that order, over 100 µM and 0.26 µM.
Take `N#Cc1nn(-c2cc(Cl)c(Oc3ccc4c(c3)CCN(Cc3ccccc3F)C4=O)c(Cl)c2)c(=O)[nH]c1=O` [Example 33d, 2-(3,5-Dichloro-4-((2-(2-fluorobenzyl)-1-oxo-1,2,3,4-tetrahydroisoquinolin-6-yl)oxy)phenyl)-3,5-dioxo-2,3,4,5-tetrahydro-1,2,4-triazine-6-carbonitrile]: the EC50 was over 100 µM in test [1] and 0.11 µM in test [2].
For `O=C1c2ccc(Oc3c(Cl)cc(-n4ncc(=O)[nH]c4=O)cc3Cl)cc2CCN1Cc1cccc(F)c1` [Example 31, 2-(3,5-dichloro-4-((2-(3-fluorobenzyl)-1-oxo-1,2,3,4-tetrahydroisoquinolin-6-yl)oxy)phenyl)-1,2,4-triazine-3,5(2H,4H)-dione], the EC50 is 0.107 µM in test [1] and under 0.0046 µM in test [2].
For `O=C1c2ccc(Oc3c(Cl)cc(-n4ncc(=O)[nH]c4=O)cc3Cl)cc2CCN1Cc1cc(F)cc(F)c1` [Example 32, 2-(3,5-dichloro-4-((2-(3,5-difluorobenzyl)-1-oxo-1,2,3,4-tetrahydroisoquinolin-6-yl)oxy)phenyl)-1,2,4-triazine-3,5(2H,4H)-dione], in that order: 0.181 µM and 0.0046 µM.
`O=C1c2ccc(Oc3c(Cl)cc(-n4ncc(=O)[nH]c4=O)cc3Cl)cc2CCN1c1nccs1` [Example 52, 2-(3,5-dichloro-4-((1-oxo-2-(thiazol-2-yl)-1,2,3,4-tetrahydroisoquinolin-6-yl)oxy)phenyl)-1,2,4-triazine-3,5(2H,4H)-dione]: the EC50 came out at 0.23 µM in test [1] and 0.016 µM in test [2].
`COCN1CCc2cc(Oc3c(Cl)cc(-n4nc(C#N)c(=O)[nH]c4=O)cc3Cl)ccc2C1=O` [Example 3, 2-(3,5-dichloro-4-((2-(methoxymethyl)-1-oxo-1,2,3,4-tetrahydroisoquinolin-6-yl)oxy)phenyl)-3,5-dioxo-2,3,4,5-tetrahydro-1,2,4-triazine-6-carbonitrile]: the concentration giving a half-maximal response (EC50) amounted to 0.29 µM in test [1] and 0.026 µM in test [2].
Turning to `N#Cc1nn(-c2cc(Cl)c(Oc3ccc4c(c3)NC(=O)CC4)c(Cl)c2)c(=O)[nH]c1=O` [Example 8, 2-(3,5-dichloro-4-((2-oxo-1,2,3,4-tetrahydroquinolin-7-yl)oxy)phenyl)-3,5-dioxo-2,3,4,5-tetrahydro-1,2,4-triazine-6-carbonitrile], the half-maximal effective concentration (EC50) in test [1] is over 100 µM; in test [2] it was over 10 µM.
As for `CC(C)OCN1CCc2cc(Oc3c(Cl)cc(-n4nc(C#N)c(=O)[nH]c4=O)cc3Cl)ccc2C1=O` [Example 13, 2-(3,5-Dichloro-4-((2-(isopropoxymethyl)-1-oxo-1,2,3,4-tetrahydroisoquinolin-6-yl)oxy)phenyl)-3,5-dioxo-2,3,4,5-tetrahydro-1,2,4-triazine-6-carbonitrile], the EC50 in test [1] came out at 0.073 µM; in test [2] it was 0.013 µM.
Consider `Cc1cc(-n2nc(C#N)c(=O)[nH]c2=O)cc(C)c1Oc1ccc2c(c1)CCNC2=O` [Example 26, 2-(3,5-dimethyl-4-((1-oxo-1,2,3,4-tetrahydroisoquinolin-6-yl)oxy)phenyl)-3,5-dioxo-2,3,4,5-tetrahydro-1,2,4-triazine-6-carbonitrile], for which the half-maximal effective concentration (EC50) in test [1] was determined as 7.04 µM; in test [2], 0.476 µM.
Take `CN1CCc2cc(Oc3c(Cl)cc(-n4nc(C#N)c(=O)[nH]c4=O)cc3Cl)ccc2C1=O` [Example 2, 2-(3,5-dichloro-4-((2-methyl-1-oxo-1,2,3,4-tetrahydroisoquinolin-6-yl)oxy)phenyl)-3,5-dioxo-2,3,4,5-tetrahydro-1,2,4-triazine-6-carbonitrile]: the results for the EC50 in test [1] and in test [2] were 1.47 µM and 0.1 µM, respectively.
The like results for `Cc1ccc(F)cc1CN1CCc2cc(Oc3c(Cl)cc(-n4ncc(=O)[nH]c4=O)cc3Cl)ccc2C1=O` [Example 40, 2-(3,5-dichloro-4-((2-(5-fluoro-2-methylbenzyl)-1-oxo-1,2,3,4-tetrahydroisoquinolin-6-yl)oxy)phenyl)-1,2,4-triazine-3,5(2H,4H)-dione] were, in that order, 0.179 µM and under 0.0046 µM.
For the molecule `N#Cc1nn(-c2cc(Cl)c(Oc3ccc4c(c3)CCN(Cc3ccc(F)cc3)C4=O)c(Cl)c2)c(=O)[nH]c1=O` [Example 20d, 2-(3,5-dichloro-4-((2-(4-fluorobenzyl)-1-oxo-1,2,3,4-tetrahydroisoquinolin-6-yl)oxy)phenyl)-3,5-dioxo-2,3,4,5-tetrahydro-1,2,4-triazine-6-carbonitrile], the EC50 was over 100 µM in test [1] and 0.534 µM in test [2].
